Measured values from patent US20020128176A1, “Treatment of erectile dysfunctions with C-Type natriuretic polypeptide (CNP) as a monotherapy or in combination with phosphodiesterase inhibitors” (priority 1999, published 2002).
Where no end group is shown, it is not given here.

What was measured:
[1] = Tests made with male patients: induction of erection; format: in vivo, human; settings: for erection / time for which the erection was maintained: male patients
[2] = test system: smooth muscle of the human corpus cavernosum penis; assay: Functional organ bath studies: relaxation of norepinephrine-precontracted strip preparations of human cavernous muscles
Protocol: Functional organ bath studies:
Strip preparations of human cavernous muscles were fixed in the bath chambers of an organ bath plant (Isolated Organ Apparatus IOA 5306, Föhr Medical Instruments GmbH, Seeheim, Germany) filled with a modified Krebs-Ringer solution (NaCl 120 mM, NaHCO3 25.6 mM, KCl 4.7 mM, CaCl2 2.5 mM, NaH2PO4 1.2 mM, MgCl2 1.2 mM, glucose 22 mM, 2Na^+ (Ca^2+) EDTA 0.1 mM, pH 7.2-7.4). The temperature of the bath solution was controlled to 37° C., and a mixture of […] O2 and 5% CO2 was continuously sparkled through the solution. The application of a passive bias tension of 5 mN (0.5 g) was followed by an equilibration phase of 60 min. Subsequently, the muscle strips were stimulated with 6 μM norepinephrine (NOR). After a stable contraction plateau was reached, the peptides human atrial natriuretic peptide/cardiodilatin (ANP/CDD99-126) (for a survey, see Forssmann et al., 1998) and human C-type natriuretic peptide (CNP) (Ogawa et al., 1992), which are chemically synthesized in our laboratory, were added with cumulative dosage (0.01 to 1000 nM). Changes in the mechanical tension of the muscles were recorded with an analog-digital measured data acquisition system (MacLab®, AD Instruments, Castle Hill, Australia).

Q: What does the source list for `CCCc1nn(C)c2c(=O)[nH]c(-c3cc(S(=O)(=O)N4CCN(C)CC4)ccc3OCC)nc12` [Sildenafil, reference compound]?
A: necessary dose for the induction of an erection ([1]; combined, simultaneous application of CNP): significantly decreased; side-effects (flickering in the eyes or headaches) ([1]; some subjects, combined application with CNP versus exclusive Sildenafil treatment): reduced, in part to complete disappearance

Q: Which erection ([1]; intracavernous application) does the source give for “C-type natriuretic polypeptide (GLSKGCFGLKLDRIGSMSGLGC) [CNP, ligand of guanylate cyclase B]” here?
A: immediate erection

Q: What about the “time for which the erection was maintained” value ([1]; intracavernous application) of the same compound?
A: about one

Q: And the erection ([1]; intravenous application)?
A: immediate erection

Q: What about the “time for which the erection was maintained” value ([1]; intravenous application) of the same compound?
A: about one

Q: What about the “concentration from which a significant relaxant effect is seen” value ([2]; strips precontracted with 6 μM norepinephrine, cumulative dosage 0.01 to 1000 nM) of the same compound?
A: 1 nM

Q: For “human atrial natriuretic peptide/cardiodilatin (SLRRSSCFGGRMDRIGAQSGLGCNSFRY; ends and bridges not checked; cysteine pairing not given here) [ANP/CDD99-126, Chemically synthesized peptide, the ligand of guanylate cyclase A, reference compound]”, which “relaxation of precontracted smooth muscle (in words)” value ([2]; at corresponding concentrations (1 nM to 1 μM), precontracted with 6 μM norepinephrine) is on record?
A: no significant relaxation
